According to publication PMC11550998, “Novel 5-HT7 receptor antagonists modulate intestinal immune responses and reduce severity of colitis” (American Journal of Physiology - Gastrointestinal and Liver …, 2024):

Experiments:
D3 = molecular target: T1, D3 (Homo sapiens, UniProt P35462); experiment: PDSP selectivity profiling, D3; assay type: binding
T1 construct: NIMH Psychoactive Drug Screening Program (PDSP), assay service

[1] = molecular target: α1a, α1b, α1d, β1, β2, β3, D2, D5, DAT, GABA-A, H2, H3, H4, mAChR1-5, opioid receptors (δ, κ, µ), benzodiazepine receptors (peripheral and brain) …; experiment: Additional selectivity profiling, receptors and transporters (PDSP); conditions: PDSP panel, limited binding capacity; read-out: Ki at a variety of receptors and transporters
Experimental: In vitro assessments of MC-170073, MC-20078, and MC-230079 activity at the following targets were determined using the assay systems available through the Psychoactive Drug Screening Program (PDSP). Detailed protocols for each assay are available at https://pdsp.unc.edu/pdspweb/?site=assays. Receptors 5-HT1A, 5-HT1B, 5-HT1D, 5-HT1E, 5-HT2A, 5-HT2B, 5-HT2C, 5-HT3, 5-HT5A, 5-HT6, 5-HT7, α1A, α1B, α1D, α2A, α2B, α2C, benzodiazepine, β1, β2, β3, GABA-A, H1, H2, H3, H4, M1, M2, M3, M4, M5, δ-opioid, κ-opioid, and µ-opioid and transporters dopamine, norepinephrine, and serotonin were evaluated.

[2] = tested on: chronic DSS-induced colitis; experiment: Chronic DSS-induced colitis model (three cycles of DSS); assay type: in vivo, C57BL/6 mice; conditions: 10 mg/kg ip during last cycle
From the text: (§1) C57BL/6 (Taconic, Cambridge City, IN) for the DSS model of colitis, as well as C57BL/6 and Rag1^−/− mice (Jackson Laboratory, Bar Harbor, ME) for the T-cell transfer model, were kept in sterilized, filter-topped cages under specific pathogen-free conditions upon arrival and fed autoclaved food. Male mice aged 8–10 wk were used for all experiments. Mice were acclimatized for 7 days before the start of any experiments. All experiments were approved by the animal ethics committee of McMaster University and conducted under Canadian guidelines for animal research.
For induction of acute colitis, DSS (molecular mass 40 kDa; ICN; Biomedicals Incorporate, Solon, OH) was added to autoclaved drinking water at a final concentration of 4 or 5% wt/vol for 5 days. For the induction of chronic colitis, DSS was added to normal drinking water at a final concentration of 4% for 5 days, followed by 7 days of water. This cycle was repeated twice thereafter, with 2% DSS. Control mice received vehicle or normal drinking water.
For acute DSS-induced colitis, C576BL/6 mice were treated with MC-170073 (10 mg/kg of body wt) or vehicle (10% DMSO in normal saline) via intraperitoneal injection once daily for 6 days, starting 1 day before the beginning of DSS. In a separate experiment, C57BL/6 mice were orally administered with MC-230078 (10 mg/kg) or vehicle twice daily for 5 days, starting from the beginning of DSS. […]
Disease activity index (DAI) is a combined score of weight loss, stool consistency, and fecal bleeding and was blindly assessed using a previously published scoring system ([19]). […] DAI was measured across all days of DSS treatment. Macroscopic damage scores were blindly scored using a previously published scoring system for DSS-induced colitis ([19]).
Colonic myeloperoxidase (MPO) levels were measured following a published protocol ([19]). […] The absorbance was measured at 450 nm by a spectrophotometer (model EL808, BioTek). MPO level was expressed in units per milligram of tissue, where 1 U is defined as the quantity of enzyme able to convert 1 μmol hydrogen peroxide to water per minute at room temperature.
Segments of the proximal colon were washed with PBS, fixed in 10% neutral-buffered formalin, washed with ethanol, and embedded in paraffin. Hematoxylin-eosin (H&E)-stained colonic tissue sections were scored using a previously published system ([19]): crypt architecture (normal = 0; severe crypt distortion with loss of entire crypts = 3), degree of inflammatory cell infiltration (normal = 0; dense inflammatory infiltrate = 3), muscle thickening (base of crypt sits on the muscularis mucosae = 0; marked muscle thickening present = 3), goblet cell depletion (absent = 0; present = 1), and crypt abscess (absent = 0; present = 1). […]

[3] = tested on: CD4+CD45RBhigh T cell-induced colitis; experiment: CD4+CD45RBhigh T cell-induced chronic colitis model; assay type: in vivo, Rag1-/- mice
From the text: as §1
Colitis was induced in Rag1^−/− mice by adoptive transfer of fluorescence-activated cell sorting (FACS)-sorted CD4^+CD45RB^high T cells, as described previously ([18]). Briefly, CD4^+ T cells were isolated from splenocytes of healthy C57BL/6 mice by the EasySep Mouse Naive CD4^+ T Cell Isolation Kit (StemCell Technology, Vancouver, Canada). Naive CD4^+ T cells were then labeled with PE-cy7-conjugated anti-mouse CD3 (BioLegend, San Diego, CA), allophycocyanin (APC)-conjugated anti-mouse CD4 (BD Biosciences), and fluorescein isothiocyanate (FITC)-conjugated anti-mouse CD45RB (BD Biosciences, Mississauga, Canada). CD4^+CD45RB^high T cells were sorted using a FACS Aria II flow cytometer (BD Biosciences, Mississauga, Canada). Cell viability was assessed using a Trypan blue assay before injection. Recipients were administered ∼5 × 10^5 sorted T cells via intraperitoneal injection.
For acute DSS-induced colitis, C576BL/6 mice were treated with MC-170073 (10 mg/kg of body wt) or vehicle (10% DMSO in normal saline) via intraperitoneal injection once daily for 6 days, starting 1 day before the beginning of DSS. In a separate experiment, C57BL/6 mice were orally administered with MC-230078 (10 mg/kg) or vehicle twice daily for 5 days, starting from the beginning of DSS. For chronic DSS-induced colitis, C57BL/6 mice were treated with MC-170073 (10 mg/kg ip) or vehicle once daily for 6 days, starting 1 day before the beginning of the third cycle. Last, for CD4^+CD45RB^high T cell-induced chronic colitis, reconstituted Rag1^−/− mice were orally administered MC-230078 (5 mg/kg or 10 mg/kg) or a vehicle twice daily for 10 days starting from week 6 post-reconstitution of T cells.
Disease activity index (DAI) is a combined score of weight loss, stool consistency, and fecal bleeding and was blindly assessed using a previously published scoring system ([19]). This scoring system was defined as follows: weight loss: 0 = no loss; 1 = 1–5%; 2 = 5–10%; 3 = 10–20%; 4 = 20%+; stool, 0 = normal; 2 = loose stool; 4 = diarrhea; and bleeding: 0 = no blood; 2 = hemoccult positive (Hemoccult II; Beckman Coulter, Fullerton, CA); and 4 = gross blood (blood around anus). DAI was measured across all days of DSS treatment. Macroscopic damage scores were blindly scored using a previously published scoring system for DSS-induced colitis ([19]).
Colonic myeloperoxidase (MPO) levels were measured following a published protocol ([19]). Briefly, colonic tissue samples were homogenized in ice-cold 50 mmol·L^−1 potassium phosphate buffer containing 0.5% hexadecyl trimethyl ammonium bromide (pH = 6.0) (Sigma). Homogenates were centrifuged, the supernatant was removed, and an aliquot was then added to a solution containing potassium phosphate buffer, O-dianisidine, and hydrogen peroxide (Sigma-Aldrich). The absorbance was measured at 450 nm by a spectrophotometer (model EL808, BioTek). MPO level was expressed in units per milligram of tissue, where 1 U is defined as the quantity of enzyme able to convert 1 μmol hydrogen peroxide to water per minute at room temperature.
Segments of the proximal colon were washed with PBS, fixed in 10% neutral-buffered formalin, washed with ethanol, and embedded in paraffin. […]

[4] = 10 mg/kg orally twice daily 10 days, vs vehicle

T1 sequence (P35462 whole entry): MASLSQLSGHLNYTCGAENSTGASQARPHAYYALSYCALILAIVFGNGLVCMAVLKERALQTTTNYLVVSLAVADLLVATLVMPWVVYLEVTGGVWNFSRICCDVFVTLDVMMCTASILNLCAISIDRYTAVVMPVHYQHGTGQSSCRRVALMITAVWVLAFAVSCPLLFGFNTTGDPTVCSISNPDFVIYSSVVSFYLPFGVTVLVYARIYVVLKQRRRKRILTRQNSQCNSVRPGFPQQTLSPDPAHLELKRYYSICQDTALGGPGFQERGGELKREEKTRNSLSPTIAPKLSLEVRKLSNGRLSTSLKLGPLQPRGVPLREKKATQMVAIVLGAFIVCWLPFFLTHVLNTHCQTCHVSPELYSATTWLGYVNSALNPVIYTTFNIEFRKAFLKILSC

| Ki (D3) [nM] | Ki [1] [nM] | SMILES | colonic IL-1β level [2] | colonic MPO level [2] | histological score [2] | macroscopic score [2] | DAI ([3]; 10 mg/kg orally twice daily 10 days from week 6, from day 4 of dosing, vs vehicle) | colonic IFN-γ [3, 4] | colonic IL-1β [3, 4] | colonic IL-6 [3, 4] | colonic MPO levels [3, 4] | colonic TNF-α [3, 4] | macroscopic damage [3, 4] | body weight change ([3]; between the two drug-treated groups (5 and 10 mg/kg)) | histological damage scores ([3]; higher dosage (10 mg/kg) orally twice daily 10 days) | colonic 5-HT levels ([3]; treated vs vehicle-treated mice) |
| --- | --- | --- | --- | --- | --- | --- | --- | --- | --- | --- | --- | --- | --- | --- | --- | --- |
| 1230 | > 10000 | CCC1(CC)CC(CCN2CCN(c3ccc(O)cc3)CC2)OC1=O (stereo not shown) [MC-170073] | lower levels | lower levels | downregulation | downregulation |  |  |  |  |  |  |  |  |  |  |
|  |  | CCC1(CC)C[C@@H](CCN2CCN(c3ccc(O)cc3)CC2)OC1=O [MC-230078] |  |  |  |  | significant reduction | significant downregulation | significant downregulation | significant downregulation | significant decrease | significant downregulation | reduced | no difference | significantly lower | no differences |
